Assay results reported in US12303845B2, “Method for crystallization of active pharmaceutical ingredients” (Nanoform Finland Oyj, priority 2023, dated 2025).
Values belong to the compound of their own block, whether it stands above or below them.

How the values were obtained:
Type in all cases: physicochemical
[1] = Crystallization of amorphous nanosized API in aqueous polymer solution, polymorph/crystallinity by XRD; design: key to Polymorph: bulk = same as the API before conversion to amorphous nanoparticles
Method: XRPD measurements were carried out using the Malvern PANalytical Empyrean X-ray diffractometer equipped with a Cu Kα (1.54 Å) source, MultiCore optics and a solid-state PIXcel3D detector. By using Kapton tape the samples were attached onto aluminum or polycrystalline silicon sample holders. Dried slurries were measured without further sample preparation under Kapton tape and suspensions were filtered, dried, and filters were attached with double sided tape. The samples were measured in the reflection geometry in a spinning measurement stage. The measurement range was 5-40 (°2θ). The step size and time per step values were varied depending on the counts per second obtained.
Determination of crystallization of API nanoparticles was evaluated via kinetic study of suspension. Accordingly, XRD measurement was done for suspension in different time points.
Amorphous API nanoparticles (budesonide, ezetimibe, ceritinib, and apalutamide) were added as dry powders to aqueous polymer solutions. The mixtures were either • (i) mixed with a magnetic stirrer and ultrasonicated until API was completely surrounded by water (wetted). The stirring was continued for 16-24 h at ambient temperature or • (ii) blended with a metal spatula and allowed to stay at room temperature for 18-24 h.
The suspensions formed were analyzed after 18-24 h. SEM and XRD samples were prepared as described above.

[2] = Stability tests of solid material (SEM, XRD, HPLC)
Method: Solid material was weighted in separate vials (approx. 150 mg of material in each) and transferred to stability chambers. Three conditions were applied: ambient conditions (material in closed vial at RT), 25° C./65% RH and 40° C./75% RH. Material was analyzed at T0 as freshly prepared, T7 ([…]), T14 ([…]) and T30 (30 d) after the initiation of stability studies. SEM, XRD and dissolution/permeability studies were used to evaluate the crystallinity, particle size/morphology and performance of the material.

[3] = SEM of crystallized suspensions and dried products (crystal size grade, particle size); design: key: 5 = nanocrystals; 1 = large crystals
Method: SEM images were captured using the Zeiss Sigma 300 VP SEM instruments. Samples were dispersed into water and filtered with 0.1 μm filter. Filters were dried, transferred to SEM sample holders, and coated with a 5 nm thick layer of platinum. Amorphous API nanoparticles (budesonide, ezetimibe, ceritinib, and apalutamide) were added as dry powders to aqueous polymer solutions. The mixtures were either • (i) mixed with a magnetic stirrer and ultrasonicated until API was completely surrounded by water (wetted). The stirring was continued for 16-24 h at ambient temperature or • (ii) blended with a metal spatula and allowed to stay at room temperature for 18-24 h. The suspensions formed were analyzed after 18-24 h. SEM and XRD samples were prepared as described above. Suspension comprising nanosized APIs prepared as shown above were dried in a vacuum desiccator overnight. The solid materials were grounded to produce powders. The powders were analyzed on XRD and SEM. The powders comprising nanosized APIs were used in the stability, permeability, and dissolution tests as described above.

[4] = HPMC 2.5 wt.-%, no SLS, mAPI 25 mg/g
[5] = PVPVA 1 wt.-%, SLS 0.2 wt.-%, mAPI 25 mg/g
[6] = PVPVA 2.5 wt.-%, SLS 0.2 wt.-%, mAPI 25 mg/g
[7] = PVPVA 2.5 wt.-%, no SLS, mAPI 25 mg/g
[8] = PVPVA 5 wt.-%, SLS 0.2 wt.-%, mAPI 25 mg/g
[9] = Poloxamer 407 1 wt.-%, SLS 0.2 wt.-%, mAPI 25 mg/g
[10] = Poloxamer 407 1 wt.-%, no SLS, mAPI 25 mg/g
[11] = Poloxamer 407 2.5 wt.-%, SLS 0.2 wt.-%, mAPI 25 mg/g
[12] = Poloxamer 407 2.5 wt.-%, no SLS, mAPI 25 mg/g
[13] = Poloxamer 407 5 wt.-%, SLS 0.2 wt.-%, mAPI 25 mg/g
[14] = Poloxamer 407 5 wt.-%, no SLS, mAPI 25 mg/g
[15] = Poloxamer 407 5 wt.-%, no SLS, mAPI 150 mg/g
[16] = Poloxamer 407 7.5 wt.-%, no SLS, mAPI 150 mg/g
[17] = Poloxamer 407 7.5 wt.-%, no SLS, mAPI 300 mg/g
[18] = Poloxamer 407 10 wt.-%, SLS 0.2 wt.-%, mAPI 25 mg/g
[19] = Poloxamer 407 10 wt.-%, no SLS, mAPI 25 mg/g
[20] = Poloxamer 407 15 wt.-%, SLS 0.2 wt.-%, mAPI 150 mg/g
[21] = Poloxamer 407 15 wt.-%, SLS 0.2 wt.-%, mAPI 300 mg/g
[22] = Poloxamer 407 15 wt.-%, no SLS, mAPI 150 mg/g
[23] = Poloxamer 407 15 wt.-%, no SLS, mAPI 300 mg/g
[24] = Poloxamer 407 15 wt.-%, no SLS, mAPI 450 mg/g
[25] = HPMC 1 wt.-%, SLS 0.2 wt.-%, mAPI 25 mg/g
[26] = HPMC 1 wt.-%, no SLS, mAPI 25 mg/g
[27] = HPMC 2.5 wt.-%, SLS 0.2 wt.-%, mAPI 25 mg/g
[28] = HPMC 5 wt.-%, SLS 0.2 wt.-%, mAPI 25 mg/g
[29] = HPMC 5 wt.-%, SLS 0.2 wt.-%, mAPI 100 mg/g
[30] = HPMC 5 wt.-%, SLS 0.2 wt.-%, mAPI 150 mg/g
[31] = HPMC 5 wt.-%, no SLS, mAPI 25 mg/g
[32] = HPMC 5 wt.-%, no SLS, mAPI 100 mg/g
[33] = HPMC 5 wt.-%, no SLS, mAPI 150 mg/g
[34] = PVP K30 1 wt.-%, no SLS, mAPI 25 mg/g
[35] = PVP K30 2.5 wt.-%, no SLS, mAPI 25 mg/g
[36] = PVP K30 5 wt.-%, no SLS, mAPI 25 mg/g
[37] = PVPVA 1 wt.-%, no SLS, mAPI 25 mg/g polymer solution
[38] = PVPVA 5 wt.-%, no SLS, mAPI 25 mg/g
[39] = PVPVA 15 wt.-%, SLS 0.2 wt.-%, mAPI 150 mg/g
[40] = PVPVA 15 wt.-%, no SLS, mAPI 150 mg/g
[41] = PVPVA 20 wt.-%, no SLS, mAPI 200 mg/g
[42] = PVPVA 25 wt.-%, SLS 0.2 wt.-%, mAPI 250 mg/g
[43] = PVPVA 25 wt.-%, no SLS, mAPI 250 mg/g
[44] = PVPVA 45 wt.-%, no SLS, mAPI 450 mg/g

- Polymorph [1, 4]: amorphous
- Polymorph [1, 5]: amorphous
- Polymorph [1, 6]: amorphous
- Polymorph [1, 7]: amorphous
- Polymorph [1, 8]: amorphous
- Polymorph ([1]; PVPVA 10 wt.-%, SLS 0.2 wt.-%, mAPI 25 mg/g): amorphous
- Polymorph [1, 9]: Form 1
- Polymorph [1, 10]: Form 1
- Polymorph [1, 11]: Form 1
- Polymorph [1, 12]: Form 1
- Polymorph [1, 13]: Form 1
- Polymorph [1, 14]: Form 1
- Polymorph [1, 15]: Form 1
- Polymorph [1, 16]: Form 1
- Polymorph [1, 17]: Form 1
- Polymorph [1, 18]: Form 1
- Polymorph [1, 19]: Form 1
- Polymorph [1, 20]: Form 1
- Polymorph [1, 21]: Form 1
- Polymorph [1, 22]: Form 1
- Polymorph [1, 23]: Form 1
- Polymorph [1, 24]: Form 1
- Stability of composition by SEM ([2]; nanosized ceritinib composition, fresh vs stored at room temperature for one month): good stability
- Grade (SEM, visual inspection) [3, 9]: 5
- Grade (SEM, visual inspection) [3, 10]: 5
- Grade (SEM, visual inspection) [3, 11]: 5
- Grade (SEM, visual inspection) [3, 12]: 5
- Grade (SEM, visual inspection) [3, 13]: 5
- Grade (SEM, visual inspection) [3, 14]: 5
- Grade (SEM, visual inspection) [3, 15]: 3
- Grade (SEM, visual inspection) [3, 16]: 3
- Grade (SEM, visual inspection) [3, 17]: 3
- Grade (SEM, visual inspection) [3, 18]: 5
- Grade (SEM, visual inspection) [3, 19]: 5
- Grade (SEM, visual inspection) [3, 20]: 5
- Grade (SEM, visual inspection) [3, 21]: 5
- Grade (SEM, visual inspection) [3, 22]: 5
- Grade (SEM, visual inspection) [3, 23]: 5
- Grade (SEM, visual inspection) [3, 24]: 5
Structure (SMILES): Cc1cc(Nc2ncc(Cl)c(Nc3ccccc3S(=O)(=O)C(C)C)n2)c(OC(C)C)cc1C1CCNCC1 [Cere, ceritinib]

- Polymorph [1, 25]: bulk
- Polymorph [1, 26]: bulk
- Polymorph [1, 27]: bulk
- Polymorph [1, 4]: bulk
- Polymorph [1, 28]: bulk
- Polymorph [1, 29]: bulk
- Polymorph [1, 30]: bulk
- Polymorph [1, 31]: bulk
- Polymorph [1, 32]: bulk
- Polymorph [1, 33]: bulk
- Polymorph [1, 34]: bulk
- Polymorph [1, 35]: bulk
- Polymorph [1, 36]: bulk
- Polymorph [1, 5]: bulk
- Polymorph [1, 37]: bulk
- Polymorph [1, 6]: bulk
- Polymorph [1, 7]: bulk
- Polymorph [1, 8]: bulk
- Polymorph [1, 38]: bulk
- Polymorph [1, 39]: bulk
- Polymorph [1, 40]: bulk
- Polymorph [1, 41]: bulk
- Polymorph [1, 42]: bulk
- Polymorph [1, 43]: bulk
- Polymorph [1, 44]: bulk
- Polymorph [1, 10]: bulk
- Polymorph [1, 12]: buik
- Polymorph [1, 14]: bulk
- Stability of nanocrystalline material over the stability study ([2]; materials prepared according to the disclosure, up to T30, crystallinity confirmed by XRD): stable over the whole stability study
- Grade (SEM, visual inspection) [3, 25]: 5
- Grade (SEM, visual inspection) [3, 26]: 5
- Grade (SEM, visual inspection) [3, 27]: 5
- Grade (SEM, visual inspection) [3, 4]: 5
- Grade (SEM, visual inspection) [3, 28]: 5
- Grade (SEM, visual inspection) [3, 29]: 5
- Grade (SEM, visual inspection) [3, 30]: 5
- Grade (SEM, visual inspection) [3, 31]: 5
- Grade (SEM, visual inspection) [3, 32]: 5
- Grade (SEM, visual inspection) [3, 33]: 5
- Grade (SEM, visual inspection) [3, 34]: 3
- Grade (SEM, visual inspection) [3, 35]: 3
- Grade (SEM, visual inspection) [3, 36]: 3
- Grade (SEM, visual inspection) [3, 5]: 4
- Grade (SEM, visual inspection) [3, 37]: 3
- Grade (SEM, visual inspection) [3, 6]: 4
- Grade (SEM, visual inspection) [3, 7]: 2
- Grade (SEM, visual inspection) [3, 8]: 4
- Grade (SEM, visual inspection) [3, 38]: 2
- Grade (SEM, visual inspection) [3, 39]: 5
- Grade (SEM, visual inspection) [3, 40]: 5
- Grade (SEM, visual inspection) [3, 41]: 5
- Grade (SEM, visual inspection) [3, 42]: 5
- Grade (SEM, visual inspection) [3, 43]: 5
- Grade (SEM, visual inspection) [3, 44]: 5
- Grade (SEM, visual inspection) [3, 10]: 1
- Grade (SEM, visual inspection) [3, 12]: 1
- Grade (SEM, visual inspection) [3, 14]: 1
Structure (SMILES): CCCC1O[C@@H]2C[C@H]3[C@@H]4CCC5=CC(=O)C=C[C@]5(C)[C@H]4[C@@H](O)C[C@]3(C)[C@]2(C(=O)CO)O1 (stereo partly drawn) [Bude, budesonide]
